In PMC5602538, “Assessment of the Drug Interaction Potential of Unconjugated and GalNAc3-Conjugated 2′-MOE-ASOs” (Molecular Therapy. Nucleic Acids, 2017):

Tests used:
CYP2E1 = CYP2E1 (Homo sapiens, UniProt P05181); experiment: CYP2E1 inhibition in cryopreserved human hepatocyte suspensions (chlorzoxazone probe)
Experimental: (§1) Preincubations were performed in 50 μL of Williams’ Medium E with 2 mM salicylamide. The salicylamide was included to reduce possible phase II conjugation to the precursor phase I metabolites. […] Human hepatocytes (pooled from 5 donors) were thawed and prepared according to the vendor’s protocol. […] Incubations were carried out at 37°C with 5% CO2. The incubation time was 45 min for phenacetin, diclofenac, dextromethorphan, midazolam, bupropion, chlorzoxazone, and testosterone and 90 min for paclitaxel and (S)-mephenytoin. The reactions were stopped by adding 200 μL of ice-cold acetonitrile (can) with tolbutamide (100 ng/mL) as the internal standard to 100 μL of hepatocyte suspension (1:2, v/v). The 96-well plate was then vortexed at 1,700 rpm for 3 min and centrifuged at 3,500 rpm for 10 min at 20°C. The supernatants were analyzed using liquid chromatography-tandem MS (LC-MS/MS).

CYP2B6 = biological target: T1, CYP2B6 (Homo sapiens, UniProt P20813); experiment: biochemical
T1 sequence (P20813 1-491): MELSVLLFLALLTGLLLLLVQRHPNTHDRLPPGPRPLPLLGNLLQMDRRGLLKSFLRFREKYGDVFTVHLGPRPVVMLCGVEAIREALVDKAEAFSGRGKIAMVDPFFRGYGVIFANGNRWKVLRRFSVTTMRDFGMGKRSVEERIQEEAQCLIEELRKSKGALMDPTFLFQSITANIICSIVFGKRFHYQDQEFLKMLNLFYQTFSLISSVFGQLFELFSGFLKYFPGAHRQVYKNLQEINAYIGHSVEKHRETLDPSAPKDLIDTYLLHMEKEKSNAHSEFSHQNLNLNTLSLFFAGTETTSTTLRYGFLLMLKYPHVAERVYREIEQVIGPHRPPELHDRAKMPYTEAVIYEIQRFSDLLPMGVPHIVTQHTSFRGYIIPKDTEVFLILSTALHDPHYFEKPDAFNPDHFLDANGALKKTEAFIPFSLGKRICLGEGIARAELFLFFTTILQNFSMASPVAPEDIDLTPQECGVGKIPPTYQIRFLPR
Experimental: as §1

P-gp = test system: T2, P-gp; experiment: P-gp inhibition study in MDCK-MDR1 cells; assay type: in vitro ADME; settings: human, probe [3H]-quinidine, 100 nM
T2 construct: host or cells: MDCK-MDR1 (MDCK cells stably transfected with MDR1)
Experimental: MDCK-MDR1 cells and MDCK-II cells transfected with BCRP were washed with HBSS at 37°C. Wells of the culture plate served as the apical compartment, and 150 μL of HBSS solutions was added to the apical wells. These solutions also contain one of the following: vehicle (for probe substrate controls), 100 μM test article (for test article inhibition experiments), 1 μM Ko143 (for BCRP inhibition), or 3 μM elacridar (for P-gp inhibition). A 96-well receiver tray was prepared with each well containing 300 μL of buffer solution corresponding to the apical wells. Receiver tray wells served as the basal compartment. The plate and receiver tray were assembled and incubated at 37°C for 30 min. The solution was then aspirated from the apical compartment and the 96-well plate was removed from the receiver tray. […] These samples were counted on a 1450 Microbeta (PerkinElmer). For samples containing test articles, samples were quantitated using LC-MS.
Net basal (B) to apical (A) flux (B→A) of the substrate transport by BCRP and P-gp was calculated by subtracting (A→B) flux from (B→A) flux as: netB→Aflux(pmol/min/cm^2)=(B→A)flux-(A→B)flux.
Percent inhibition was calculated by dividing the net flux (B→A) in the presence of the test article or the reference inhibitor by the net flux (B→A) in the absence of the inhibitor as: %inhibition=100−(100×netfluxwithinhibitor/(meannetflux)withoutinhibitor).

Sequence of CYP2E1 (P05181 whole entry): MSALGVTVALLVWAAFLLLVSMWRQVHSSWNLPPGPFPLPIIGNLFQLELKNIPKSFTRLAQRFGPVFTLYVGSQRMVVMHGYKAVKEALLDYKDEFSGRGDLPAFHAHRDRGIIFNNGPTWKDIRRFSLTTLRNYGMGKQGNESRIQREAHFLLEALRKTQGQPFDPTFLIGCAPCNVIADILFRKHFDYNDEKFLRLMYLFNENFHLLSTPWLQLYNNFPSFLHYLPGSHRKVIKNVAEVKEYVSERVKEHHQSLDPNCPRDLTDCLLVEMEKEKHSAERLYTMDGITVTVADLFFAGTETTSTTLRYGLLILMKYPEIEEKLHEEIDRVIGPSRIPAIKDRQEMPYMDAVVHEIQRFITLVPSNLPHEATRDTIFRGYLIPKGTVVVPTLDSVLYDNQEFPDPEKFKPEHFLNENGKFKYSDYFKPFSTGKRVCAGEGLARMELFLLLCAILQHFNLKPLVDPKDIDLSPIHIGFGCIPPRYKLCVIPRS

Q: Which IC50 (CYP2E1) does the source give for `Cc1ncsc1CCCl` [chlormethiazole] here?
A: The IC50 was 1.08 nM.

Q: With `COC(=O)[C@H](c1ccccc1Cl)N1CCc2sccc2C1` [clopidogrel] as the molecule, how does the IC50 (CYP2B6) read?
A: The IC50 was 163 nM.

Q: `COc1cc2c(cc1OC)CN(CCc1ccc(NC(=O)c3cccc4c(=O)c5cccc(OC)c5[nH]c34)cc1)CC2` [elacridar] was tested. Which inhibition at 90 min, 3 μM (P-gp) did it give?
A: Its inhibition at 90 min, 3 μM is 90.2 ± 1.42%.
